Experimental data: article PMC7801313, “Effect of lurbinectedin on the QTc interval in patients with advanced solid tumors: an exposure–response analysis” (Cancer Chemotherapy and Pharmacology, 2020)
Values joined by “and” are separate entries in the source; they are usually repeats but may differ in a detail not shown here. Identical values can stand only once.

Test system: patients with advanced solid tumors
Assay: QT evaluation study, by time point ECG analysis
Format: in vivo, human
Method: This was a QT evaluation study (EudraCT No. 2015-000206-18; ClinicalTrials.gov: NCT02451007) performed at a subset of sites participating in a multicenter, open-label, exploratory, phase II basket clinical trial (EudraCT No: 2014-003773-42; ClinicaTrials.gov: NCT02454972) conducted in patients with selected advanced solid tumors. The schedule used in this QT evaluation study was that evaluated in the basket trial: lurbinectedin 3.2 mg/m^2 given as a 1-h i.v. infusion q3wk.
A screening ECG was collected between day -10 and day -2 before the first lurbinectedin infusion (day 1 of cycle 1) and transmitted to the central ECG laboratory to confirm the patient’s eligibility.
On day 1 of cycle 1, two baseline triplicate ECGs (three 10-s digital ECGs in close succession) were collected: one before administration of prophylactic medication or pre-dose 1, and the other after antiemetic prophylactic medication (palonosetron 0.25 mg i.v.) and before the start of the lurbinectedin infusion or pre-dose 2 (also on cycle 2).
In cycle 1 and cycle 2, the following triplicate ECGs were collected 5–10 min before their time-matched PK time points: 5 min before end of the lurbinectedin infusion (EOI), 30 min, 1, 3, 24, 72 (only on cycle 1), and 168 h after EOI.
A 12-lead automated digital ECG recorder [Mortara Instrument (Milwaukee, WI, USA) ELI-150 ECG 12-lead digital recorder] was provided by a third-party central ECG laboratory (eResearchTechnology, Inc., Philadelphia, PA, USA). Analysis and reporting of ECG data were performed by a limited number of skilled readers who were blinded to treatment time point. ECG review of a particular patient was performed by a single reader. Interval duration measurements were collected using computer-assisted caliper placements on three consecutive beats. A cardiologist then verified the interval durations and performed the morphology analysis, noting any T-U wave complex compatible with an effect on cardiac repolarization. The ECG analysis was conducted in Lead II or in Lead V5 if Lead II was not analyzable. If Lead V5 was not analyzable, then Lead V2 was used, and followed by the most appropriate lead if necessary. The mean of triplicate ECG measures at each time point for each patient was used for analyses.
Fridericia’s formula [6] is currently considered the most accurate method for correcting the effect of HR on QT interval [7], and was used as the main method for HR correction for QT (QTcF). Nevertheless, graphical inspection of QTcF and QT corrected by Bazett’s formula (QTcB) versus RR interval plots and statistical comparison of resulting squared linear regression slopes (R^2) was performed.
The primary endpoint was the change in QTc corrected by the Fridericia’s formula (ΔQTcF) between each scheduled post-baseline ECG time point and baseline at cycle 1. A patient was considered evaluable for the primary endpoint if he/she had baseline and one or more post-baseline ECG assessments.
Secondary endpoints were the ΔQTcF/lurbinectedin plasma concentration relationship, and change in other ECG parameters (i.e., HR, QRS, and PR).
The primary comparison was ΔQTcF at each ECG time point. A non-inferiority criterion of 20 ms was used to establish the absence of post-baseline QTc prolongation when compared to baseline. An analysis of variance model with mixed effects was fitted, with ΔQTc data as the dependent variable and ECG time point as the fixed effects, and patient as random effect.
Using the estimated least square means (LSM) and intra-patient standard deviation (Std) obtained from this model, a two-sided 90% confidence interval (CI) was calculated for each LSM ΔQTc. Non-inferiority was to be concluded if the upper bound (UB) of the one-sided 95% CI fell below 20 ms at each ECG time point.

[1] = Cycle 1 Day 1, 30 min after end of infusion
[2] = Cycle 1 Day 1, 1 h after end of infusion
[3] = Cycle 1 Day 1, 3 h after end of infusion
[4] = Cycle 1 Day 2, 24 h after end of infusion
[5] = Cycle 1 Day 4, 72 h after end of infusion
[6] = Cycle 1 Day 8, 168 h after end of infusion
[7] = Cycle 2 Day 1, 5 min before end of infusion
[8] = Cycle 2 Day 1, 5 min before start of infusion
[9] = Cycle 2 Day 1, 30 min after end of infusion
[10] = Cycle 2 Day 1, 1 h after end of infusion
[11] = Cycle 2 Day 8, 168 h after end of infusion
[12] = all time points other than 3 h after end of cycle 2 infusion

Structure (SMILES): COc1ccc2[nH]c3c(c2c1)CCN[C@]31CS[C@@H]2c3c(OC(C)=O)c(C)c4c(c3[C@H](COC1=O)N1[C@@H]2[C@H]2c3c(cc(C)c(OC)c3O)C[C@@H]([C@@H]1O)N2C)OCO4 [lurbinectedin, Lurbinectedin]
- effect on cardiac repolarization (3.2 mg/m^2 1-h i.v. q3wk): not associated with a clinically relevant effect on cardiac repolarization
- values above reference limits QTcF > 480 ms and ΔQTcF > 60 ms (39 evaluable patients): No single value was above the reference limit values of concern
- ΔQTcF, mean (Stdv) (Cycle 1, 0.92 h after start of infusion): 3.33 (8.46) ms
- ΔQTcF, mean (Stdv) (Cycle 1, 1.5 h after start of infusion): 1.76 (8.25) ms
- ΔQTcF, mean (Stdv) (Cycle 1, 2 h after start of infusion): 1.84 (10.88) ms
- highest mean change from baseline in HR (± Std) (Cycle 1, 3 h after end of infusion): 16.7 (± 11.0) bpm and 16.7 bpm
- ΔQTcF, mean (Stdv) (Cycle 1, 4 h after start of infusion): 1.33 (10.39) ms
- ΔQTcF UB90%CI (Cycle 1 Day 1, 5 min before end of infusion): 5.51 ms
- ΔQTcF LSmean (Cycle 1 Day 1, 5 min before end of infusion, 3.2 mg/m^2 1-h i.v.): 3.32 ms
- ΔQTcF LSmean [1]: 1.76 ms
- ΔQTcF UB90%CI [1]: 3.93 ms
- ΔQTcF LSmean [2]: 1.84 ms
- ΔQTcF UB90%CI [2]: 4.69 ms
- ΔQTcF LSmean [3]: 1.32 ms
- ΔQTcF UB90%CI [3]: 4.05 ms
- ΔQTcF LSmean [4]: -8.24 ms
- ΔQTcF UB90%CI [4]: -5.26 ms
- ΔQTcF LSmean [5]: -12.38 ms
- ΔQTcF UB90%CI [5]: -9.39 ms
- ΔQTcF LSmean [6]: -5.2 ms
- ΔQTcF UB90%CI [6]: -2.41 ms
- ΔQTcF, mean (Stdv) (Cycle 2, 0.92 h after start of infusion): 1.54 ms and 1.54 (12.36) ms
- ΔQTcF, mean (Stdv) (Cycle 2, 1.5 h after start of infusion): 1.99 (12.06) ms
- ΔQTcF, mean (Stdv) (Cycle 2, 2 h after start of infusion): 1.92 (13.65) ms
- ΔQTcF, mean (Stdv) (Cycle 2, 4 h after start of infusion (largest mean)): 4.69 ms and 4.69 (15.28) ms
- ΔQTcF LSmean [7]: 2.25 ms
- ΔQTcF UB90%CI [7]: 5.68 ms
- ΔQTcF LSmean [8]: -0.46 ms
- ΔQTcF UB90%CI [8]: 2.35 ms
- ΔQTcF LSmean [9]: 2.32 ms
- ΔQTcF UB90%CI [9]: 5.66 ms
- ΔQTcF LSmean [10]: 2.73 ms
- ΔQTcF UB90%CI [10]: 6.54 ms
- ΔQTcF UB90%CI (Cycle 2 Day 1, 3 h after end of infusion (largest UB)): 9.6 ms and 9.60 ms
- ΔQTcF LSmean (Cycle 2 Day 1, 3 h after end of infusion (maximum)): 5.39 ms
- ΔQTcF LSmean [11]: -4.22 ms
- ΔQTcF UB90%CI [11]: -1.08 ms
- variation between lowest and largest mean change from baseline of PR interval (all time points and cycles): 7.8 ms
- variation between lowest and largest mean change from baseline of QRS duration (all time points and cycles): 2.5 ms
- LSM ΔQTcF at other time points [12]: ≤ 3.3 ms
- UB of the 90% CI of ΔQTcF at other time points [12]: < 6.6 ms
- Umax (time when the largest mean ΔQTcF is reached) (cycle 1): 0.92 h
- patients with ΔHR > 25% (cycle 1): 44%
- difference between Umax and Tmax (cycle 2): 3.08 h
- patients with ΔHR > 25% (cycle 2): 49%
- highest mean change from baseline in HR (± Std) (cycle 2, 3 h after end of infusion): 17.5 (± 11.7) bpm and 17.5 bpm
- effects on atrioventricular conduction or depolarization (mean changes in PR and QRS intervals) (in vivo): No significant effects
